Results from US20080318891A1, “Antisense oligonucleotides against thymidylate synthase” (priority 1998, published 2008).

Tested on: TS protein
Assay: TS binding assay ([6-3H]5-FdUMP binding) in HeLa cell lysates
Type: cell-based, human
Settings: HeLa cells, different times following transfection
Method: 5-FdUMP binding was measured in cells transfected with ODN 83 (hatched bars) or ODN 32 (open bars) at different times following transfection. (A) Results are plotted as a percent of 5-FdUMP binding in cells transfected with control ODN 32±SE (n=5). The values for ODN 32 (n=5) were normalized to 100% and are shown without error bars. […] Error bars indicate errors calculated according to a Student t-test, and indicate error due to differences in experimental conditions in 5 measurements taken on different days, and differences due to transfection with different ODNs. The asterisks indicate significant differences (p<0.02) determined by using a paired Student t-test.
TS binding assay: Cellular content of TS was assayed by binding of [6-^3H]5-FdUMP. […] The assay was performed using cells that were treated with antisense ODN 83 or the scrambled control ODN 32. Briefly, cells were harvested by scraping into PBS and resuspending the subsequent pellet in 100 mM KH2PO4 (pH 7.4). […] The total protein concentration was determined using Coomassie staining (BioRad reagent) (MI) in order to express results as pmol 5-FdUMP bound per mg total protein. 5-FdUMP binding was assessed in paired lysates from cells transfected with ODN 83 or ODN 32, in separate incubation reactions carried out on different days; however, pairs were always assessed together under the same reaction conditions. […]

ODN 32: scrambled control, randomised sequence of ODN 83, 5′-ATGCGCCAACGGTTCCTAAA-3′ (all phosphorothioate, sugars by position and methylation of C not given here; further chemistry not fully specified) [reference compound]
TS protein levels (inferred by 5-FdUMP binding): no significant effect
